# In PMC9706574, “A Versatile and Sustainable Multicomponent Platform for the Synthesis of Protein Degraders: Proof-of-Concept Application to BRD4-Degrading PROTACs” (Journal of Medicinal Chemistry, 2022):
# Where a SMILES comes first, the peptide text is derived from it. [ ]: non-standard residue; d: D form. The star is where a group is joined. JQ1acid = Cc1sc2c(c1C)C(c1ccc(Cl)cc1)=N[C@@H](CC(=O)*)c1nnc(C)n1-2; NHBn(4-(4-Me-thiazol-5-yl)) = Cc1ncsc1-c1ccc(CN*)cc1; Hyp = O=C(O)[C@@H]1C[C@@H](O)CN1; Tle = CC(C)(C)[C@H](N)C(=O)O; Sar = CNCC(=O)O
# What was measured:
# [1] = molecular target: T1, BRD4 (Homo sapiens, UniProt O60885); experiment: BRD4 degradation by Western blot analysis in MDA-MB-231 cells; assay type: cell-based; conditions: for Densitometry (% of control), BRD4-immunoreactive band relative to DMSO vehicle / BRD4 degradation in time-course experiments (in words): 1 μM; for BRD4 degradation in time-course experiments (in words): 4 up to 24 h
# T1 construct: endogenous in cells; host or cells: MDA-MB-231
# Method: In Vitro Biological Validation of PROTACs and Preliminary Assessment of Thermodynamic Aqueous Solubility and Metabolic Stability of Selected BRD4-Degrading PROTACs. With the aim of proving the utility of our platform and the compatibility of the substructures accessible by the MCR strategy with a proximity-based degradation, the ability of our PROTAC candidates to effectively act as BRD4 degraders was tested in the human breast cancer cell line MDA-MB-231, known to express detectable levels of this protein.
# The human breast adenocarcinoma MDA-MB-231 cell line was cultured in DMEM (Sigma-Aldrich) supplemented with 10% fetal bovine serum (FBS), 1% glutamine, and 1% penicillin/streptomycin. For Western blot analysis, […] cells/well were plated into 12-well plates containing DMEM complete growth medium, to be treated with the synthesized compounds, at the indicated concentrations, for different time lengths. After treatments, cells were scraped and lysed to obtain protein extract using RIPA lysis buffer supplemented with protease (PIC, Merck-Millipore) and phosphatase inhibitors (NaF 1 M, Na3VO4 1 M, PMSF […], Sigma-Aldrich). Cells lysates were centrifuged at 13 000 rpm for 10 min at 4 °C to remove membranes and insoluble fractions. Protein quantification of the supernatant fraction was performed with Braford protein assay (Sigma-Aldrich). […] aliquots of protein extracts were used for 12% SDS-PAGE. After transfer into nitrocellulose membranes, BRD4 and tubulin protein levels were evaluated by immunoblotting using a rabbit polyclonal anti-BRD4 (Bethyl Laboratories) and a mouse monoclonal α-tubulin (Sigma-Aldrich) IgG as primary antibodies and an antirabbit or antimouse HRP-conjugated secondary antibody (Bio-Rad Laboratories). Protein levels were detected by chemiluminescent conversion of the HRP substrate LumiGLO (Thermo Fisher Scientific) using the ChemiDoc imaging system (Bio-Rad). Band densitometry was assessed, normalized to α-tubulin immunoreactive bands, and reported as percentage of the 0.3% DMSO control lane.
SMILES,melting point,"Densitometry (% of control), BRD4-immunoreactive band relative to DMSO vehicle ([1]; 4 h, MDA-MB-231 cells)","Densitometry (% of control), BRD4-immunoreactive band relative to DMSO vehicle ([1]; 8 h, MDA-MB-231 cells)","Densitometry (% of control), BRD4-immunoreactive band relative to DMSO vehicle ([1]; 16 h, MDA-MB-231 cells)","Densitometry (% of control), BRD4-immunoreactive band relative to DMSO vehicle ([1]; 24 h, MDA-MB-231 cells)","effect of cotreatment with proteasome inhibitor bortezomib on BRD4 degradation ([1]; 1 μM compound + 5 nM bortezomib, 8 h)","DC50 ([1]; 8 h treatment, MDA-MB-231 cells, from Western blot densitometry)",BRD4 degradation in time-course experiments (in words) ([1]; MDA-MB-231 cells),"dose-response of BRD4 degradation (in words) ([1]; 100 nM to 10 μM, 8 h, MDA-MB-231 cells)"
"Cc1sc2c(c1C)C(c1ccc(Cl)cc1)=N[C@@H](CC(=O)N1CCN(CC(=O)NCCCCOc3cccc4c3C(=O)N(C3CCC(=O)NC3=O)C4=O)CC1)c1nnc(C)n1-2 (stereo partly drawn) [Compound 33, 2-(4-(2-((S)-4-(4-Chlorophenyl)-2,3,9-trimethyl-6H-thieno[3,2-f][1,2,4]triazolo[4,3-a][1,4]diazepin-6-yl)acetyl)piperazin-1-yl)-N-(4-((2-(2,6-dioxopiperidin-3-yl)-1,3-dioxoisoindolin-4-yl)oxy)butyl)acetamide]",229.4 to 230 °C (dec.),"51,8 % of control","23,1 % of control","17,4 % of control","24,4 % of control",abolish BRD4 degradation,89.9 nM,"able to induce BRD4 degradation, although the onset of this effect was delayed (after 8 h)",degradation was observed only at 1 and 3 μM concentrations
"Cc1sc2c(c1C)C(c1ccc(Cl)cc1)=N[C@@H](CC(=O)N1CCN(CC(=O)NCCOCCOc3cccc4c3C(=O)N(C3CCC(=O)NC3=O)C4=O)CC1)c1nnc(C)n1-2 (stereo partly drawn) [Compound 35, 2-(4-(2-((S)-4-(4-Chlorophenyl)-2,3,9-trimethyl-6H-thieno[3,2-f][1,2,4]triazolo[4,3-a][1,4]diazepin-6-yl)acetyl)piperazin-1-yl)-N-(2-(2-((2-(2,6-dioxopiperidin-3-yl)-1,3-dioxoisoindolin-4-yl)oxy)ethoxy)ethyl)acetamide]",173.8 to 174.5 °C (dec.),"107,8 % of control","40,1 % of control","39,2 % of control","72,1 % of control",–,–,–,–
"Cc1ncsc1-c1ccc(CNC(=O)[C@@H]2C[C@@H](O)CN2C(=O)[C@@H](NC(=O)CNC(=O)CN(C)C(=O)C[C@@H]2N=C(c3ccc(Cl)cc3)c3c(sc(C)c3C)-n3c(C)nnc32)C(C)(C)C)cc1 [Compound 45, (2S,4R)-1-((S)-2-(2-(2-(2-((S)-4-(4-Chlorophenyl)-2,3,9-trimethyl-6H-thieno[3,2-f][1,2,4]triazolo[4,3-a][1,4]diazepin-6-yl)-N-methylacetamido)acetamido)acetamido)-3,3-dimethylbutanoyl)-4-hydroxy-N-(4-(4-methylthiazol-5-yl)benzyl)pyrrolidine-2-carboxamide] (JQ1acid-[Sar]G[Tle][Hyp]-{NHBn(4-(4-Me-thiazol-5-yl))})",114.6 to 116 °C,"41,6 % of control","107,9 % of control",–,–,–,–,–,–
"Cc1ncsc1-c1ccc(CNC(=O)[C@@H]2C[C@@H](O)CN2C(=O)[C@@H](NC(=O)CNC(=O)CN2CCN(C(=O)C[C@@H]3N=C(c4ccc(Cl)cc4)c4c(sc(C)c4C)-n4c(C)nnc43)CC2)C(C)(C)C)cc1 [Compound 46, (2S,4R)-1-((S)-2-(2-(2-(4-(2-((S)-4-(4-Chlorophenyl)-2,3,9-trimethyl-6H-thieno[3,2-f][1,2,4]triazolo[4,3-a][1,4]diazepin-6-yl)acetyl)piperazin-1-yl)acetamido)acetamido)-3,3-dimethylbutanoyl)-4-hydroxy-N-(4-(4-methylthiazol-5-yl)benzyl)pyrrolidine-2-carboxamide]",183.3 to 184.8 °C,"61,7 % of control",135 % of control,–,–,–,–,–,–

# Second part, led by results:
melting point,"Densitometry (% of control), BRD4-immunoreactive band relative to DMSO vehicle ([1]; 4 h, MDA-MB-231 cells)","Densitometry (% of control), BRD4-immunoreactive band relative to DMSO vehicle ([1]; 8 h, MDA-MB-231 cells)","Densitometry (% of control), BRD4-immunoreactive band relative to DMSO vehicle ([1]; 16 h, MDA-MB-231 cells)","Densitometry (% of control), BRD4-immunoreactive band relative to DMSO vehicle ([1]; 24 h, MDA-MB-231 cells)","effect of cotreatment with proteasome inhibitor bortezomib on BRD4 degradation ([1]; 1 μM compound + 5 nM bortezomib, 8 h)","DC50 ([1]; 8 h treatment, MDA-MB-231 cells, from Western blot densitometry)",SMILES,BRD4 degradation in time-course experiments (in words) ([1]; MDA-MB-231 cells),"dose-response of BRD4 degradation (in words) ([1]; 100 nM to 10 μM, 8 h, MDA-MB-231 cells)"
155.6 to 156.8 °C (dec.),"83,9 % of control","33,3 % of control","101,3 % of control","36,3 % of control",–,–,"Cc1sc2c(c1C)C(c1ccc(Cl)cc1)=N[C@@H](CC(=O)N(C)CC(=O)NCCOCCOc1cccc3c1C(=O)N(C1CCC(=O)NC1=O)C3=O)c1nnc(C)n1-2 (stereo partly drawn) [Compound 25, 2-((S)-4-(4-Chlorophenyl)-2,3,9-trimethyl-6H-thieno[3,2-f][1,2,4]triazolo[4,3-a][1,4]diazepin-6-yl)-N-(2-((2-(2-((2-(2,6-dioxopiperidin-3-yl)-1,3-dioxoisoindolin-4-yl)oxy)ethoxy)ethyl)amino)-2-oxoethyl)-N-methylacetamide]",–,–
152.5 to 153.5 °C (dec.),"106,3 % of control","65,4 % of control","128,9 % of control","70,9 % of control",–,–,"Cc1sc2c(c1C)C(c1ccc(Cl)cc1)=N[C@@H](CC(=O)N(C)CC(=O)NCCOCCOCCOc1cccc3c1C(=O)N(C1CCC(=O)NC1=O)C3=O)c1nnc(C)n1-2 (stereo partly drawn) [Compound 26, 2-((S)-4-(4-Chlorophenyl)-2,3,9-trimethyl-6H-thieno[3,2-f][1,2,4]triazolo[4,3-a][1,4]diazepin-6-yl)-N-(2-((2-(2-(2-((2-(2,6-dioxopiperidin-3-yl)-1,3-dioxoisoindolin-4-yl)oxy)ethoxy)ethoxy)ethyl)amino)-2-oxoethyl)-N-methylacetamide]",–,–
224.4 to 226.6 °C (dec.),"48,3 % of control","22,8 % of control","36,8 % of control","73,4 % of control",–,–,"Cc1sc2c(c1C)C(c1ccc(Cl)cc1)=N[C@@H](CC(=O)NCC(=O)NCCOCCOc1cccc3c1C(=O)N(C1CCC(=O)NC1=O)C3=O)c1nnc(C)n1-2 (stereo partly drawn) [Compound 30, 2-((S)-4-(4-Chlorophenyl)-2,3,9-trimethyl-6H-thieno[3,2-f][1,2,4]triazolo[4,3-a][1,4]diazepin-6-yl)-N-(2-((2-(2-((2-(2,6-dioxopiperidin-3-yl)-1,3-dioxoisoindolin-4-yl)oxy)ethoxy)ethyl)amino)-2-oxoethyl)acetamide]",modest and transitory degradation of BRD4 (at 8 and 16 h of treatment),–
201.2 to 202.9 °C (dec.),"74,6 % of control","56,6 % of control","34,7 % of control","42,9 % of control",–,–,"Cc1sc2c(c1C)C(c1ccc(Cl)cc1)=N[C@@H](CC(=O)NCC(=O)NCCOCCOCCOc1cccc3c1C(=O)N(C1CCC(=O)NC1=O)C3=O)c1nnc(C)n1-2 (stereo partly drawn) [Compound 31, 2-((S)-4-(4-Chlorophenyl)-2,3,9-trimethyl-6H-thieno[3,2-f][1,2,4]triazolo[4,3-a][1,4]diazepin-6-yl)-N-(2-((2-(2-(2-((2-(2,6-dioxopiperidin-3-yl)-1,3-dioxoisoindolin-4-yl)oxy)ethoxy)ethoxy)ethyl)amino)-2-oxoethyl)acetamide]",modest and transitory degradation of BRD4,–
194.5 to 195.8 °C (dec.),"110,8 % of control","54,7 % of control","41,4 % of control","64,7 % of control",–,–,"Cc1sc2c(c1C)C(c1ccc(Cl)cc1)=N[C@@H](CC(=O)N1CCN(CC(=O)NCCOCCOCCOc3cccc4c3C(=O)N(C3CCC(=O)NC3=O)C4=O)CC1)c1nnc(C)n1-2 (stereo partly drawn) [Compound 36, 2-(4-(2-((S)-4-(4-Chlorophenyl)-2,3,9-trimethyl-6H-thieno[3,2-f][1,2,4]triazolo[4,3-a][1,4]diazepin-6-yl)acetyl)piperazin-1-yl)-N-(2-(2-(2-((2-(2,6-dioxopiperidin-3-yl)-1,3-dioxoisoindolin-4-yl)oxy)ethoxy)ethoxy)ethyl)acetamide]",–,–
